Measured values reported in PubChem BioAssay (NCI).
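Compound exposure: 48 hours, 5 concentrations, 96-well plates. At the TGI there is no net growth.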

What was measured:
Assay in all cases: DTP human tumour cell line panel, 48 h
HCT-116 colon = test system: HCT-116 colon
HOP-62 NSCLC = test system: HOP-62 NSCLC
ACHN renal = test system: ACHN renal
UACC-62 melanoma = test system: UACC-62 melanoma
PC-3 prostate = test system: PC-3 prostate
EKVX NSCLC = test system: EKVX NSCLC
MDA-MB-435 = test system: MDA-MB-435
SK-MEL-2 melanoma = test system: SK-MEL-2 melanoma
TK-10 renal = test system: TK-10 renal
M14 melanoma = test system: M14 melanoma
COLO 205 colon = test system: COLO 205 colon
UACC-257 melanoma = test system: UACC-257 melanoma
MOLT-4 leukemia = test system: MOLT-4 leukemia
KM12 colon = test system: KM12 colon
SK-OV-3 ovarian = test system: SK-OV-3 ovarian
SW-620 colon = test system: SW-620 colon
RXF 393 renal = test system: RXF 393 renal
SF-539 CNS = test system: SF-539 CNS
SF-268 CNS = test system: SF-268 CNS
RPMI-8226 leukemia = test system: RPMI-8226 leukemia
NCI-H460 lung = test system: NCI-H460 lung
CCRF-CEM leukemia = test system: CCRF-CEM leukemia
UO-31 renal = test system: UO-31 renal
MALME-3M melanoma = test system: MALME-3M melanoma
IGROV1 ovarian = test system: IGROV1 ovarian
SF-295 CNS = test system: SF-295 CNS
OVCAR-4 ovarian = test system: OVCAR-4 ovarian
SN12C renal = test system: SN12C renal
A498 renal = test system: A498 renal
SNB-19 CNS = test system: SNB-19 CNS
NCI-H522 lung = test system: NCI-H522 lung
DU-145 prostate = test system: DU-145 prostate
LOX IMVI melanoma = test system: LOX IMVI melanoma
MDA-N = test system: MDA-N
OVCAR-8 ovarian = test system: OVCAR-8 ovarian
MDA-MB-231 breast = test system: MDA-MB-231 breast
HCT-15 colon = test system: HCT-15 colon
HCC-2998 colon = test system: HCC-2998 colon
MCF7 breast = test system: MCF7 breast
SK-MEL-28 melanoma = test system: SK-MEL-28 melanoma
SNB-75 CNS = test system: SNB-75 CNS
U251 CNS = test system: U251 CNS
OVCAR-3 ovarian = test system: OVCAR-3 ovarian
NCI/ADR-RES ovarian = test system: NCI/ADR-RES ovarian
CAKI-1 renal = test system: CAKI-1 renal
OVCAR-5 ovarian = test system: OVCAR-5 ovarian
A549 NSCLC = test system: A549 NSCLC
NCI-H226 lung = test system: NCI-H226 lung
SK-MEL-5 melanoma = test system: SK-MEL-5 melanoma
T-47D breast = test system: T-47D breast
SR leukemia = test system: SR leukemia
NCI-H23 lung = test system: NCI-H23 lung
K-562 leukemia = test system: K-562 leukemia
BT-549 breast = test system: BT-549 breast
786-0 renal = test system: 786-0 renal
HT29 colon = test system: HT29 colon
HS 578T breast = test system: HS 578T breast
HOP-92 NSCLC = test system: HOP-92 NSCLC
HL-60(TB) leukemia = test system: HL-60(TB) leukemia

c1ccc(/C(=N\Nc2nc3ccccc3[nH]2)c2ccccn2)cc1
TGI (HCT-116 colon): 4.52 µM
TGI (HOP-62 NSCLC): 2.12 µM
TGI (ACHN renal): 2 µM
TGI (UACC-62 melanoma): 6.23 µM
TGI (PC-3 prostate): 37.7 µM
TGI (EKVX NSCLC): 2.96 µM
TGI (MDA-MB-435): 13.7 µM
TGI (SK-MEL-2 melanoma): 21.4 µM
TGI (TK-10 renal): 3.82 µM
TGI (M14 melanoma): 1.89 µM
TGI (COLO 205 colon): 3.31 µM
TGI (UACC-257 melanoma): 4.63 µM
TGI (MOLT-4 leukemia): 51.9 µM
TGI (KM12 colon): 17 µM
TGI (SK-OV-3 ovarian): 2.02 µM
TGI (SW-620 colon): > 69.4 µM
TGI (RXF 393 renal): 14.4 µM
TGI (SF-539 CNS): 1.64 µM
TGI (SF-268 CNS): > 45.9 µM
TGI (RPMI-8226 leukemia): 1.07 µM
TGI (NCI-H460 lung): 13.1 µM
TGI (CCRF-CEM leukemia): 0.891 µM
TGI (UO-31 renal): 6.73 µM
TGI (MALME-3M melanoma): 8.31 µM
TGI (IGROV1 ovarian): 1.31 µM
TGI (SF-295 CNS): 9.26 µM
TGI (OVCAR-4 ovarian): 4.99 µM
TGI (SN12C renal): > 21.1 µM
TGI (A498 renal): 5.14 µM
TGI (SNB-19 CNS): > 100 µM
TGI (NCI-H522 lung): 0.69 µM
TGI (DU-145 prostate): > 100 µM
TGI (LOX IMVI melanoma): 7.44 µM
TGI (MDA-N): 18.4 µM
TGI (OVCAR-8 ovarian): 1.05 µM
TGI (MDA-MB-231 breast): 41.2 µM
TGI (HCT-15 colon): 5.83 µM
TGI (HCC-2998 colon): 4.1 µM
TGI (MCF7 breast): 5.45 µM
TGI (SK-MEL-28 melanoma): 12.8 µM
TGI (SNB-75 CNS): 3.85 µM
TGI (U251 CNS): > 28.5 µM
TGI (OVCAR-3 ovarian): 2.99 µM
TGI (NCI/ADR-RES ovarian): 0.842 µM
TGI (CAKI-1 renal): 8.79 µM
TGI (OVCAR-5 ovarian): 4.47 µM
TGI (A549 NSCLC): 22.1 µM
TGI (NCI-H226 lung): 2.09 µM
TGI (SK-MEL-5 melanoma): 4.66 µM
TGI (T-47D breast): 27 µM
TGI (SR leukemia): > 31.8 µM
TGI (NCI-H23 lung): 14.5 µM
TGI (K-562 leukemia): > 100 µM
TGI (BT-549 breast): 14.5 µM
TGI (786-0 renal): 2.57 µM
TGI (HT29 colon): 2.69 µM
TGI (HS 578T breast): 51.7 µM
TGI (HOP-92 NSCLC): 0.887 µM

Nc1ccc(Oc2ccc(C34CC5CC(C3)CC(c3ccc(Oc6ccc(N)cc6C(F)(F)F)cc3)(C5)C4)cc2)c(C(F)(F)F)c1
TGI (HCT-116 colon): > 100 µM
TGI (HOP-62 NSCLC): 44.9 µM
TGI (ACHN renal): > 100 µM
TGI (UACC-62 melanoma): 62.3 µM
TGI (PC-3 prostate): 29.2 µM
TGI (EKVX NSCLC): 30.9 µM
TGI (MDA-MB-435): 84.2 µM
TGI (SK-MEL-2 melanoma): 28.8 µM
TGI (TK-10 renal): 31.1 µM
TGI (M14 melanoma): 33.4 µM
TGI (COLO 205 colon): 37.1 µM
TGI (UACC-257 melanoma): 40.3 µM
TGI (MOLT-4 leukemia): > 100 µM
TGI (KM12 colon): 67.6 µM
TGI (SK-OV-3 ovarian): 35.4 µM
TGI (SW-620 colon): > 100 µM
TGI (RXF 393 renal): 25.1 µM
TGI (SF-268 CNS): 43.9 µM
TGI (NCI-H460 lung): 37.9 µM
TGI (CCRF-CEM leukemia): > 100 µM
TGI (UO-31 renal): > 100 µM
TGI (MALME-3M melanoma): 58.5 µM
TGI (IGROV1 ovarian): 37.9 µM
TGI (HL-60(TB) leukemia): > 100 µM
TGI (SF-295 CNS): 79.9 µM
TGI (OVCAR-4 ovarian): > 100 µM
TGI (SN12C renal): > 100 µM
TGI (A498 renal): 35.2 µM
TGI (SNB-19 CNS): 48.9 µM
TGI (NCI-H522 lung): 30.3 µM
TGI (DU-145 prostate): > 100 µM
TGI (LOX IMVI melanoma): 31.8 µM
TGI (MDA-N): > 100 µM
TGI (OVCAR-8 ovarian): 29.5 µM
TGI (MDA-MB-231 breast): 31.5 µM
TGI (HCT-15 colon): > 100 µM
TGI (MCF7 breast): 33.8 µM
TGI (SK-MEL-28 melanoma): > 100 µM
TGI (U251 CNS): 27.6 µM
TGI (OVCAR-3 ovarian): 37.7 µM
TGI (NCI/ADR-RES ovarian): 54.9 µM
TGI (CAKI-1 renal): > 100 µM
TGI (OVCAR-5 ovarian): 70.3 µM
TGI (A549 NSCLC): 49 µM
TGI (NCI-H226 lung): 35.7 µM
TGI (SK-MEL-5 melanoma): 39.9 µM
TGI (T-47D breast): 64.5 µM
TGI (NCI-H23 lung): 45.6 µM
TGI (K-562 leukemia): > 100 µM
TGI (BT-549 breast): 52.1 µM
TGI (786-0 renal): > 100 µM
TGI (HT29 colon): 35.6 µM
TGI (HS 578T breast): 42.6 µM
